Reference: PubChem BioAssay (NCI)
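A five-concentration, 48-hour dose response in 96-well plates underlies each endpoint, interpolated linearly between surrounding concentrations. GI50 = concentration required for 50% inhibition of growth. TGI: concentration producing complete growth inhibition.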

Assays:
Test in all cases: NCI-60 cell line screen, 48 h
[1] = test system: MOLT-4 leukemia
[2] = test system: CCRF-CEM leukemia
[3] = test system: A549 NSCLC
[4] = test system: SF-295 CNS
[5] = test system: LOX IMVI melanoma
[6] = test system: PC-3 prostate
[7] = test system: HOP-92 NSCLC
[8] = test system: NCI-H226 lung
[9] = test system: HS 578T breast
[10] = test system: U251 CNS
[11] = test system: EKVX NSCLC
[12] = test system: OVCAR-3 ovarian
[13] = test system: OVCAR-4 ovarian
[14] = test system: A498 renal
[15] = test system: SK-MEL-28 melanoma
[16] = test system: IGROV1 ovarian
[17] = test system: 786-0 renal
[18] = test system: COLO 205 colon
[19] = test system: SK-MEL-5 melanoma
[20] = test system: T-47D breast
[21] = test system: OVCAR-8 ovarian
[22] = test system: UACC-62 melanoma
[23] = test system: RXF 393 renal
[24] = test system: BT-549 breast
[25] = test system: K-562 leukemia
[26] = test system: HL-60(TB) leukemia
[27] = test system: MDA-MB-231 breast
[28] = test system: KM12 colon
[29] = test system: DU-145 prostate
[30] = test system: SF-268 CNS
[31] = test system: NCI-H23 lung
[32] = test system: SNB-19 CNS
[33] = test system: HT29 colon
[34] = test system: RPMI-8226 leukemia
[35] = test system: SK-MEL-2 melanoma
[36] = test system: SN12C renal
[37] = test system: SNB-75 CNS
[38] = test system: CAKI-1 renal
[39] = test system: UACC-257 melanoma
[40] = test system: HOP-62 NSCLC
[41] = test system: OVCAR-5 ovarian
[42] = test system: HCT-116 colon
[43] = test system: SF-539 CNS
[44] = test system: SW-620 colon
[45] = test system: UO-31 renal
[46] = test system: ACHN renal
[47] = test system: SK-OV-3 ovarian
[48] = test system: HCT-15 colon
[49] = test system: MALME-3M melanoma
[50] = test system: NCI-H522 lung
[51] = test system: MCF7 breast
[52] = test system: SR leukemia
[53] = test system: M14 melanoma
[54] = test system: NCI-H460 lung
[55] = test system: MDA-MB-435
[56] = test system: NCI/ADR-RES ovarian
[57] = test system: HCC-2998 colon

Structure (SMILES): CCN(Cc1ccc(OC)cc1)c1ccc(CO)c(Cl)c1
- GI50 [1]: 21.6 µM
- TGI [1]: 59.7 µM
- GI50 [2]: 23.9 µM
- TGI [2]: > 83.3 µM
- GI50 [3]: 2.62 µM
- TGI [3]: 35.9 µM
- GI50 [4]: 1.31 µM
- TGI [4]: 31.5 µM
- GI50 [5]: 13.2 µM
- TGI [5]: 27.4 µM
- GI50 [6]: 21.7 µM
- TGI [6]: > 81.8 µM
- GI50 [7]: 2.17 µM
- TGI [7]: 20.7 µM
- GI50 [8]: 0.0519 µM
- TGI [8]: 0.182 µM
- GI50 [9]: 22.1 µM
- TGI [9]: > 86.1 µM
- GI50 [10]: 0.966 µM
- TGI [10]: 26.6 µM
- GI50 [11]: 20.5 µM
- TGI [11]: > 83.3 µM
- GI50 [12]: 0.636 µM
- TGI [12]: 6.19 µM
- GI50 [13]: 0.369 µM
- TGI [13]: 15.9 µM
- GI50 [14]: 0.0306 µM
- TGI [14]: 0.168 µM
- GI50 [15]: 16.3 µM
- TGI [15]: 36.6 µM
- GI50 [16]: 0.114 µM
- TGI [16]: 1.16 µM
- GI50 [17]: 10.6 µM
- TGI [17]: 45.4 µM
- GI50 [18]: 0.451 µM
- TGI [18]: 3.31 µM
- GI50 [19]: 2.66 µM
- TGI [19]: 18.6 µM
- GI50 [20]: 0.115 µM
- TGI [20]: 0.589 µM
- GI50 [21]: 14 µM
- TGI [21]: 52.4 µM
- GI50 [22]: 0.0986 µM
- TGI [22]: 0.686 µM
- GI50 [23]: 7.35 µM
- TGI [23]: 28.3 µM
- GI50 [24]: 12.7 µM
- TGI [24]: 37.4 µM
- GI50 [25]: 2.33 µM
- TGI [25]: > 100 µM
- GI50 [26]: 13.8 µM
- TGI [26]: 59.9 µM
- GI50 [27]: 18.9 µM
- TGI [27]: 61.3 µM
- GI50 [28]: 18.3 µM
- TGI [28]: 44.7 µM
- GI50 [29]: 25.6 µM
- TGI [29]: > 100 µM
- GI50 [30]: 29.1 µM
- TGI [30]: > 100 µM
- GI50 [31]: 13.7 µM
- TGI [31]: 60 µM
- GI50 [32]: 26.8 µM
- TGI [32]: > 100 µM
- GI50 [33]: 2.07 µM
- TGI [33]: 17.3 µM
- GI50 [34]: 6.23 µM
- TGI [34]: 46.1 µM
- GI50 [35]: 3.79 µM
- TGI [35]: 20.2 µM
- GI50 [36]: 14.5 µM
- TGI [36]: 39.3 µM
- GI50 [37]: 13.9 µM
- TGI [37]: 45.6 µM
- GI50 [38]: 1.14 µM
- TGI [38]: > 36.3 µM
- GI50 [39]: 0.124 µM
- TGI [39]: 0.312 µM
- GI50 [40]: 2.05 µM
- TGI [40]: 29.4 µM
- GI50 [41]: 0.162 µM
- TGI [41]: 0.636 µM
- GI50 [42]: 0.0875 µM
- TGI [42]: 10.8 µM
- GI50 [43]: 19.9 µM
- TGI [43]: 46.3 µM
- GI50 [44]: 1.04 µM
- TGI [44]: > 100 µM
- GI50 [45]: 6.18 µM
- TGI [45]: 39.6 µM
- GI50 [46]: 19.3 µM
- TGI [46]: > 81.5 µM
- GI50 [47]: 6.7 µM
- TGI [47]: 30.8 µM
- GI50 [48]: 12.2 µM
- TGI [48]: > 100 µM
- GI50 [49]: 17 µM
- TGI [49]: 38.4 µM
- GI50 [50]: 16.6 µM
- TGI [50]: 46.7 µM
- GI50 [51]: 0.163 µM
- TGI [51]: 15.7 µM
- GI50 [52]: 24.7 µM
- TGI [52]: > 72.5 µM
- GI50 [53]: 16.1 µM
- TGI [53]: 58.3 µM
- GI50 [54]: 0.317 µM
- TGI [54]: 14.6 µM
- GI50 [55]: 16.7 µM
- TGI [55]: 43.6 µM
- GI50 [56]: 15 µM
- TGI [56]: 49.6 µM
- GI50 [57]: 12.9 µM
- TGI [57]: 40.4 µM
